{"source": "patent US20240082244A1", "about": "“PHARMACEUTICAL FORMULATION” (Redx Pharma PLC, priority 2021, published 2024)", "assay": "Experimental stability/excipient compatibility study of prototype formulation", "format": "physicochemical", "settings": "with Vitamin E polyethylene glycol succinate and gelatin capsule shell; 25° C./60% RH and 40° C./75% RH over a 1-month period", "excerpt": "A homogeneous solution of Compound I is formed with the Vitamin E polyethylene glycol succinate (TPGS), which enables good uniformity of content to be achieved at low strengths."}
{"compound": "Cc1c(-c2ccnc(C(F)(F)F)c2)ncn1CC(=O)Nc1ccc(-c2cnccn2)cn1", "note": "[Compound I]", "values": [{"measurement": "Degradation of Compound I in prototype formulation", "result": "No significant degradation"}]}
